Reference: patent US10570179B2, “Substituted urea depsipeptide analogs as activators of the CLPP endopeptidase” (priority 2016, dated 2020)
Values after ≈ are worked out from the molar mass of the structure shown. Like-named read-outs stand apart in the source and are kept apart here. Numbered stars: 1 amine (or outer) side, 2 acyl side, 3 side chain; on linkers, the order of the positions; unused ones are H or OH. Bridge positions count the residues as written; N and C are the ends. Square brackets hold non-standard residues; d marks the D form. Peptide text beside a SMILES is read from it. * marks the point of attachment. Piperazine(2S-CO,4-Me) = CN1CCN[C@H](C(=O)O)C1; Phe(3-Me) = Cc1cccc(C[C@H](N)C(=O)O)c1; Pro(4S-Me) = C[C@@H]1CN[C@H](C(=O)O)C1; Pro(4R-Me) = C[C@H]1CN[C@H](C(=O)O)C1; Hyp = O=C(O)[C@@H]1C[C@@H](O)CN1; NH(3-Cl-phenyl) = Clc1cccc(N*)c1; NH(4-Cl-phenyl) = Clc1ccc(N*)cc1; NH(4-Et-phenyl) = CCc1ccc(N*)cc1; aThr = C[C@H](O)[C@H](N)C(=O)O; Pip = O=C(O)[C@@H]1CCCCN1; CO = O=C([*:1])[*:2]

How the values were obtained:
MRSA NRS70 = assay: Minimal inhibitory concentration, microbroth dilution; type: cell-based; conditions: Staphylococcus aureus
Procedure: (§1) Minimal inhibitory concentrations (“MICs”) were determined using the microbroth dilution method according to Clinical Laboratory Standards Institute (CLSI; National, C.F. C. L. S., Methods for Dilution Antimicrobial Susceptibility Tests for Bacteria Grow aerobically-Seventh Edition: Approved Standard M7-A7, CLSI, Wayne, Pa., USA, 2008) and were read by visual inspection. Two fold serial dilutions of test compound in 100 μL of the appropriate broth media were first prepared in 96-well round bottom microtiter plates (Nalgene Nunc International, Rochester, N.Y., USA). An equivalent volume (100 μL) of bacterial broth inocula containing approximately 10^5 bacterial cfu/mL was added to each well to give final concentrations of test compound starting at 200 μM. The plates were then incubated aerobically at 37° C. All strains were incubated overnight. After incubations, in all cases the MIC was recorded as the lowest concentration of drug that prevented bacterial growth. The bacterial strains for which MIC was determined as described in Table 4.

S. aureus ATCC 29213 = assay: as above; type: cell-based; conditions: Staphylococcus aureus
Procedure: as §1

E. faecails = assay: as above; type: cell-based; conditions: Enterococcus faecalis
Procedure: as §1

S. aureus USA 300 = assay: as above; type: cell-based; conditions: Staphylococcus aureus
Procedure: as §1

S. aureus ClpP (Sa-ClpP) = target: T1, S. aureus ClpP (Sa-ClpP) (Staphylococcus aureus, UniProt Q2G036); assay: Casein-BODIPY digestion assay (ClpP activation); type: biochemical
T1 construct: made in house; host or cells: E. coli BL21 (DE3)
Procedure: The compounds were assayed in a casein digestion assay in order to determine their effect on ClpP activation. Briefly, the assay was carried out using S. aureus ClpP (“Sa-ClpP”) overexpressed in E. coli BL21 (DE3) and purified in a two-step process. Purity of the protein was assessed through SDS PAGE analysis. EC50 evaluations were conducted in triplicate in a 20 μl assay format using a method adapted from Maurizi et al. (Methods Enzymol. (1994) 244:314-331). Each well contained 10 μM saClpP, 25 μg/ml BODIPY FL casein (Invitrogen Corporation, San Diego, Calif.), and test compound in concentrations ranging between 0-1000 μM in assay buffer (50 mM Tris pH 8, 200 mM KCl, and 1 mM TCEP). The reaction took place at 37° C. Fluorescence (excitation 485 nm; emission 528 nm) was measured in five minute intervals over a 45 min period using a BioTek HT fluorescence microplate reader (BioTek Instruments, Inc., Winooski, Vt.). Velocity of each reaction was calculated and data was fit to a dose response curve using GraphPad Prism® software (GraphPad Software, Inc., La Jolla, Calif.). EC50 is the effective concentration of compound which causes 50% activation of S. aureus ClpP in the foregoing BODIPY FL casein assay.
Alternatively, the assay was carried out using EnzCheck Protease Assay (Molecular Probes, Catalog # E6638). The assay was performed in black 384 well, flat bottom, low volume plates (Greiner Bio-One, Monroe, N.C., catalog #784076). 10 μL of Tris.HCl buffer, pH 8.0 with 0.01% Triton X-100 was pipetted into each well using a Well-Mate (Thermo Scientific, Waltham, Mass.). 0.4 μL test compounds or controls (2% DMSO v/v) were added to each well using a Biomek FX liquid handling robot (Beckman Coulter, Indianapolis, Ind.). After addition of test compounds and controls, 10 μL of master mix containing 2 μM Sa-ClpP and 2 μM substrate (Bodipy-FL labeled casein) in Tris.HCl buffer, pH 8.0 with 0.01% (v/v) Triton X-100, was pipetted into each well. All assays were performed in triplicate, under linear velocity conditions. Increase in fluorescent signal following activation of Sa-ClpP by test compounds and controls was measured over time period of 30 mins using filters with excitation at 485±15 nm and emission at 520±25 nm on a PHERAstar FS Multilabel reader (BMG, Cary, N.C.). Instrument gains and enzyme linear velocity conditions were determined and validated using ADEP4, a known Sa-ClpP activator. Data analysis was done by measuring rate of casein degradation over time (slopes). Computed degradation rates (slopes) were normalized to positive (ADEP4) or negative (DMSO) controls. Using nonlinear regression curve fitting EC50 values and % activation were determined using the equation “log [agonist] vs. Response-variable slope (four parameters)-symmetrical” in the program Prism 6 (GraphPad Software, La Jolla, Calif. USA, www.graphpad.com).

S. aureus ΔClpP = assay: Minimal inhibitory concentration, microbroth dilution; type: cell-based, Staphylococcus aureus; conditions: MIC; ClpP inactivated
Procedure: as §1

[1] = read-out: Minimal Inhibitory Concentrations (μM) MRSA NRS70, MIC
[2] = ATCC29213, read-out: Minimal Inhibitory Concentrations (μM) S. aureus ATCC 29213, MIC
[3] = read-out: Minimal Inhibitory Concentrations (μM) E. faecails, MIC
[4] = USA300, read-out: Minimal Inhibitory Concentrations (μM) S. aureus USA 300, MIC

T1 sequence (Q2G036 whole entry): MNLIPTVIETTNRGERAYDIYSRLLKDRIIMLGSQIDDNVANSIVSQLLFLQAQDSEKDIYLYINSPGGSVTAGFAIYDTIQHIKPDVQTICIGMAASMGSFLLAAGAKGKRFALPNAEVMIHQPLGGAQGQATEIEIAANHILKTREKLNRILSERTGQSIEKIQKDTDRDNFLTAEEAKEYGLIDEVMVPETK

Row | SMILES | MIC (MRSA NRS70; MIC, read-out: Minimal Inhibitory Concentrations (μM) MRSA NRS70) [µM] | MIC (S. aureus ATCC 29213; ATCC29213, MIC, read-out: Minimal Inhibitory Concentrations (μM) S. aureus ATCC 29213) [µM] | MIC (E. faecails; MIC, read-out: Minimal Inhibitory Concentrations (μM) E. faecails) [µM] | MIC (S. aureus USA 300; USA300, MIC, read-out: Minimal Inhibitory Concentrations (μM) S. aureus USA 300) [µM] | EC50 (S. aureus ClpP (Sa-ClpP)) [nM] | Minimal Inhibitory Concentrations (μM) S. aureus ΔClpP (S. aureus ΔClpP) [µM] | MIC (MRSA NRS70; [1]) [µM] | MIC (S. aureus ATCC 29213; [2]) [µM] | MIC (E. faecails; [3]) [µM] | MIC (S. aureus USA 300; [4]) [µM]
1 | CCc1ccc(NC(=O)N[C@@H](Cc2cccc(C)c2)C(=O)N[C@@H]2C(=O)N3C[C@H](O)C[C@H]3C(=O)N3CCCC[C@H]3C(=O)N[C@@H](C)C(=O)N3CCC[C@H]3C(=O)O[C@H]2C)cc1 [Compound 58, (S)-2-(3-(4-ETHYLPHENYL)UREIDO)-N-((6S,8AS,14AS,16R,20S,21S,23AS)-16-HYDROXY-6,21-DIMETHYL-5,8,14,19,23-PENTAOXOOCTADECAHYDRO-1H,5H,14H,19H-PYRIDO[2,1-I]DIPYRROLO[2,1-C:2′,1′-L][1]OXA[4,7,10,13]TETRAAZACYCLOHEXADECIN-20-YL)-3-(M-TOLYL)PROPANAMIDE] ({NH(4-Et-phenyl)-CO}-[Phe(3-Me)][aThr][Hyp][Pip]AP; ester 2-C) | 0.625 (≈ 0.501 µg/mL) | 2.5 (≈ 2 µg/mL) | 2.5 (≈ 2 µg/mL) | 0.625 (≈ 0.501 µg/mL) | 270 ± 100 | >20 | – | – | – | –
2 | Cc1cccc(C[C@H](NC(=O)Nc2cccc(Cl)c2)C(=O)N[C@@H]2C(=O)N3C[C@H](O)C[C@H]3C(=O)N3CCCC[C@H]3C(=O)N[C@@H](C)C(=O)N3C[C@H](C)C[C@H]3C(=O)O[C@H]2C)c1 [Compound 62, (S)-2-(3-(3-CHLOROPHENYL)UREIDO)-N-((2R,6S,8AS,14AS,16R,20S,21S,23AS)-16-HYDROXY-2,6,21-TRIMETHYL-5,8,14,19,23-PENTAOXOOCTADECAHYDRO-1H,5H,14H,19H-PYRIDO[2,1-I]DIPYRROLO[2,1-C:2′,1′-L][1]OXA[4,7,10,13]TETRAAZACYCLOHEXADECIN-20-YL)-3-(M-TOLYL)PROPANAMIDE] ({NH(3-Cl-phenyl)-CO}-[Phe(3-Me)][aThr][Hyp][Pip]A[Pro(4R-Me)]; ester 2-C) | – | – | – | – | 420 ± 100 | >20 | 0.625 (≈ 0.514 µg/mL) | 1.25 (≈ 1.03 µg/mL) | 2.5 (≈ 2.06 µg/mL) | 0.625 (≈ 0.514 µg/mL)
3 | Cc1cccc(C[C@H](NC(=O)Nc2cccc(Cl)c2)C(=O)N[C@@H]2C(=O)N3CCC[C@H]3C(=O)N3CCCC[C@H]3C(=O)N[C@@H](C)C(=O)N3C[C@H](C)C[C@H]3C(=O)O[C@H]2C)c1 [Compound 64, (S)-2-(3-(3-CHLOROPHENYL)UREIDO)-3-(M-TOLYL)-N-((2R,6S,8AS,14AS,20S,21S,23AS)-2,6,21-TRIMETHYL-5,8,14,19,23-PENTAOXOOCTADECAHYDRO-1H,5H,14H,19H-PYRIDO[2,1-I]DIPYRROLO[2,1-C:2′,1′-L][1]OXA[4,7,10,13]TETRAAZACYCLOHEXADECIN-20-YL)PROPANAMIDE] ({NH(3-Cl-phenyl)-CO}-[Phe(3-Me)][aThr]P[Pip]A[Pro(4R-Me)]; ester 2-C) | – | – | – | – | 430 ± 200 | >20 | 0.625 (≈ 0.504 µg/mL) | 0.625 (≈ 0.504 µg/mL) | 10 (≈ 8.06 µg/mL) | 1.25 (≈ 1.01 µg/mL)
4 | Cc1cccc(C[C@H](NC(=O)Nc2cccc(Cl)c2)C(=O)N[C@@H]2C(=O)N3C[C@H](O)C[C@H]3C(=O)N3CCCC[C@H]3C(=O)N[C@@H](C)C(=O)N3C[C@@H](C)C[C@H]3C(=O)O[C@H]2C)c1 [Compound 67, (S)-2-(3-(3-CHLOROPHENYL)UREIDO)-N-((2S,6S,8AS,14AS,16R,20S,21S,23AS)-16-HYDROXY-2,6,21-TRIMETHYL-5,8,14,19,23-PENTAOXOOCTADECAHYDRO-1H,5H,14H,19H-PYRIDO[2,1-I]DIPYRROLO[2,1-C:2′,1′-L][1]OXA[4,7,10,13]TETRAAZACYCLOHEXADECIN-20-YL)-3-(M-TOLYL)PROPANAMIDE] ({NH(3-Cl-phenyl)-CO}-[Phe(3-Me)][aThr][Hyp][Pip]A[Pro(4S-Me)]; ester 2-C) | – | – | – | – | 440 ± 300 | >20 | 2.5 (≈ 2.06 µg/mL) | 2.5 (≈ 2.06 µg/mL) | 5 (≈ 4.11 µg/mL) | 2.5 (≈ 2.06 µg/mL)
5 | Cc1cccc(C[C@H](NC(=O)Nc2ccc(Cl)cc2)C(=O)N[C@@H]2C(=O)N3C[C@H](O)C[C@H]3C(=O)N3CCN(C)C[C@H]3C(=O)N[C@@H](C)C(=O)N3C[C@H](C)C[C@H]3C(=O)O[C@H]2C)c1 [Compound 68, (S)-2-(3-(4-CHLOROPHENYL)UREIDO)-N-((6AS,8R,12S,13S,15AS,17R,21S,23AS)-8-HYDROXY-2,13,17,21-TETRAMETHYL-6,11,15,20,23-PENTAOXOOCTADECAHYDRO-2H,6H,11H,15H-PYRAZINO[2,1-I]DIPYRROLO[2,1-C:2′,1′-L][1]OXA[4,7,10,13]TETRAAZACYCLOHEXADECIN-12-YL)-3-(M-TOLYL)PROPANAMIDE] ({NH(4-Cl-phenyl)-CO}-[Phe(3-Me)][aThr][Hyp][Piperazine(2S-CO,4-Me)]A[Pro(4R-Me)]; ester 2-C) | – | – | – | – | 290 ± 100 | >20 | 2.5 (≈ 2.09 µg/mL) | 1.25 (≈ 1.05 µg/mL) | 0.625 (≈ 0.523 µg/mL) | 0.625 (≈ 0.523 µg/mL)
6 | Cc1cccc(C[C@H](NC(=O)Nc2cccc(Cl)c2)C(=O)N[C@H]2COC(=O)[C@@H]3C[C@H](C)CN3C(=O)[C@H](C)NC(=O)[C@@H]3CCCCN3C(=O)[C@@H]3CCCN3C2=O)c1 [Compound 54, (S)-2-(3-(3-CHLOROPHENYL)UREIDO)-N-((2S,6S,8AS,14AS,20S,23AS)-2,6-DIMETHYL-5,8,14,19,23-PENTAOXOOCTADECAHYDRO-1H,5H,14H,19H-PYRIDO[2,1-I]DIPYRROLO[2,1-C:2′,1′-L][1]OXA[4,7,10,13]TETRAAZACYCLOHEXADECIN-20-YL)-3-(M-TOLYL)PROPANAMIDE] | – | – | – | – | 1540 ± 1400 | >20 | 5 (≈ 3.96 µg/mL) | > 20 | 10 (≈ 7.92 µg/mL) | > 20
7 | Cc1cccc(C[C@H](NC(=O)Nc2cccc(Cl)c2)C(=O)N[C@@H]2C(=O)N3C[C@H](O)C[C@H]3C(=O)N3CCCC[C@H]3C(=O)N[C@@H](C)C(=O)N3CCC[C@H]3C(=O)O[C@H]2C)c1 [Compound 60, (S)-2-(3-(3-CHLOROPHENYL)UREIDO)-N-((6S,8AS,14AS,16R,20S,21S,23AS)-16-HYDROXY-6,21-DIMETHYL-5,8,14,19,23-PENTAOXOOCTADECAHYDRO-1H,5H,14H,19H-PYRIDO[2,1-I]DIPYRROLO[2,1-C:2′,1′-L][1]OXA[4,7,10,13]TETRAAZACYCLOHEXADECIN-20-YL)-3-(M-TOLYL)PROPANAMIDE] ({NH(3-Cl-phenyl)-CO}-[Phe(3-Me)][aThr][Hyp][Pip]AP; ester 2-C) | – | – | – | – | 1470 ± 1100 | – | 5 (≈ 4.04 µg/mL) | > 20 | > 20 | 10 (≈ 8.08 µg/mL)
